Data published in patent US10206897B2 (Board of Regents of the University of Nebraska, priority 2000, dated 2019).
Where two headings read alike, the source gives them in different places.

How the values were obtained:
MDCK monolayers [1] = assay: permeability (flux) across MDCK monolayers; settings: over one hour
[2] = system: brain microvessel endothelial cells (BMEC); assay: prostaglandin E2 release from BMEC monolayers exposed to bacterial lipopolysaccharide; format: cell-based
Source text: In an exemplary study primary cultured brain microvessel endothelial cells (BMEC) were used as an in vitro cell culture model to examine inflammation. These cells have been used previously to examine the effects of the inflammatory mediators such as tumor necrosis factor (TNF), and bacterial lipopolysaccharide (LPS). See Mark, K. S. and Miller, D. W. increased Permeability of Prim my Cultured Brain Microvessel Endothelial Cell Monolayers Following Tumor Necrosis Factor-Alpha Exposure. Life Sci. 64: 1941-1953, 1999, which is herein incorporated by reference in its entirety. See also Mark, K. S., Trickier, W. J., and Miller, D. W. Role of Cyclooxygenase-2 and Prostaglandins in the TNF-a Induced Changes in Brain Microvessel Endothelial Cell Permeability. J. Pharmacol. Exp. Ther. 297: I 051-1058, 200 I, which is herein incorporated by reference in its entirety. See also McGuire, T. R., Hoie, E., Trickier, […]., and Miller, D. W. Release of Prostaglandin E-2 in Bovine Brain Endothelial Cells After Exposure to Three Unique Forms of the Antifuingal Drug Amphotericin: Role of COX-2 in Amphotericin-Induced Fever. Life Sci. (accepted for publication), which is herein incorporated by reference in its entirety. These studies indicate that following exposure to either tumor necrosis factor (TNF) or bacterial lipopolysaccharide (LPS), there is an increased expression of cyclooxygenase 2 (COX 2). […] Treatment with bacterial lipopolysaccharide (LPS) alone caused significant increases in prostaglandin E2 (PGE2) release from the cells over the 12 hour exposure period (approximately 1a-fold increase over control).

cyclooxygenase 1 = cyclooxygenase 1 (Homo sapiens, UniProt P23219); assay: direct inhibition of cyclooxygenase 1; settings: at concentrations used in the current study
cyclooxygenase 1, sequence (P23219 24-599, species assumed): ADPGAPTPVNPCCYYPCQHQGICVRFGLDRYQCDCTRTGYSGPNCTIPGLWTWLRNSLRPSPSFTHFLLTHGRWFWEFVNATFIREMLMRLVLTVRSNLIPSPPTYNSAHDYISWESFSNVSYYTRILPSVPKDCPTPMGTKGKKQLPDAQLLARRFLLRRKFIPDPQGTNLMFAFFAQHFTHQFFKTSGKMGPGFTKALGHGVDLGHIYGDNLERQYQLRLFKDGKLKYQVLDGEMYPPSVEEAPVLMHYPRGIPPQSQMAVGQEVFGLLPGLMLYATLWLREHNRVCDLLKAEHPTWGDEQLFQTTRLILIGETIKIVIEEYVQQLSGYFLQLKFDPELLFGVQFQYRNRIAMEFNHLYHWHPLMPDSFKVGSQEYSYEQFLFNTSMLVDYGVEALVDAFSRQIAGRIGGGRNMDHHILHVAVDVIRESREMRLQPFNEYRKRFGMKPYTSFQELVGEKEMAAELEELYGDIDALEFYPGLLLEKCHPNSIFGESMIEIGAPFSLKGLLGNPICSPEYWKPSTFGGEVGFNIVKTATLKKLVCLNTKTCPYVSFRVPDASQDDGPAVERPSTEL

cyclooxygenase 2 = target: T1, cyclooxygenase 2 (Homo sapiens, UniProt P35354); assay: direct inhibition of cyclooxygenase 2; settings: at concentrations used in the current study
T1 sequence (P35354 18-604): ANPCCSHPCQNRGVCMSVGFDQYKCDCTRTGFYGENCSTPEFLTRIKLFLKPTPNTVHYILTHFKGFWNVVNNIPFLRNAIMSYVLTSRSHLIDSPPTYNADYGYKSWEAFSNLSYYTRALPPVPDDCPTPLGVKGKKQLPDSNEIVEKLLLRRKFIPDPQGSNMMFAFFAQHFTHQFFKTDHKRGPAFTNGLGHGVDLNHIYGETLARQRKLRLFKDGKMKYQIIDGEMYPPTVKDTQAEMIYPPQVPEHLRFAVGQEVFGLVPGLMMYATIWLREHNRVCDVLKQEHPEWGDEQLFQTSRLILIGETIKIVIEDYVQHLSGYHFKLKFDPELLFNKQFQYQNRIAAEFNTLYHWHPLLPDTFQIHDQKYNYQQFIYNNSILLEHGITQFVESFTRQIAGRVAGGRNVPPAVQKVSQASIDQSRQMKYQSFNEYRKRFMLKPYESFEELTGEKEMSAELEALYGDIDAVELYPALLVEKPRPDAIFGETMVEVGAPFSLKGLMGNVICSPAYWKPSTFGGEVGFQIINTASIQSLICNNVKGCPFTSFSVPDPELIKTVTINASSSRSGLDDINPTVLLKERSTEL

[3] = of the administered dose; cited from earlier work
[4] = system: inflammatory responses produced by carrageenan, 5-hydroxytryptamine, nystatin and formaldehyde; settings: oral; cited from earlier work
[5] = gastric pH range of 1-2; cited from earlier work
MDCK monolayers [6] = settings: dog, 1 h
C2Cl2 Muscle Cells [7] = assay: accumulation (loading) of creatine in C2Cl2 muscle cells; format: cell-based, mouse; settings: 3.2 mg/ml, up to 1 hour at 37 C
Source text: (§1) Over this time period it was observed that here is a significant, approximately two-fold, increase in the “loading” of CEE in the muscle cells versus CM loading. FIGS. 13 through 15 exemplify the effects of this increased loading of CEE in the C2Cl2 cells under normal and hypoxic conditions. FIGS. 13 through 15 illustrate the results of studies of lactic acid levels in and lactic acid release from C2Cl2 muscle cells. […] The results were gathered over a six hour period of time.

C2Cl2 Muscle Cells [8] = assay: lactic acid levels in and release from C2Cl2 muscle cells under normal and hypoxic conditions; format: cell-based, mouse; settings: 100 uM, six hour period
Source text: as §1

## CN(CC(=O)O)C(=N)N [creatine monohydrate]
MDCK monolayers [1]
  flux across MDCK monolayer: approximately 10%
[2]; 1000 μM
  magnitude of PGE2 response compared with indomethacin (10 μM): similar
[2]; LPS 20 ng/ml, 12 hour exposure
  concentration giving maximal reduction in PGE2 release: at least 1000 μM
  lowest concentration with reduction in PGE2 release: 100 µM
Cyclooxygenase 1; monohydrate
  direct inhibition of cyclooxygenase 1: have not presently revealed an inhibition
Cyclooxygenase 2; monohydrate
  direct inhibition of cyclooxygenase 2: have not presently revealed an inhibition

## CN(CC(=O)O)C(=N)N [creatine]
[3]
  total estimated oral absorption: ≤ 14%
[4]
  suppression of experimentally induced inflammatory responses: orally effective
[5]
  creatinine/creatine ratio: greater than or equal to 30
Partition coefficient
  Partition: 0.015 +/− 0.007
Cyclooxygenase 1
  direct inhibition of cyclooxygenase 1: does not inhibit
Cyclooxygenase 2
  direct inhibition of cyclooxygenase 2: does not inhibit

## CCOC(=O)CN(C)C(=N)N.Cl [creatine ethyl ester hydrochloride, Creatine Ethyl Ester Hydrochloride]
[2]; LPS 20 ng/ml, 12 hour exposure
  concentration giving maximal reduction in PGE2 release: 100 µM
  lowest concentration with reduction in PGE2 release: 10 µM
[2]; LPS 20 ng/ml, 12 hour exposure, co-administration
  effect on prostaglandin E2 (PGE2) release following LPS exposure: significantly reduced

## CCOC(=O)CN(C)C(=N)N [creatine ethyl ester]
MDCK monolayers [6]
  flux across MDCK monolayer: approximately 20%
C2Cl2 Muscle Cells [7]
  increase in loading in muscle cells versus CM loading: approximately two-fold
[2]; 100 μM
  magnitude of PGE2 response compared with indomethacin (10 μM): similar
Cyclooxygenase 1
  direct inhibition of cyclooxygenase 1: have not presently revealed an inhibition
C2Cl2 Muscle Cells [8]
  cellular lactic acid levels: marked reduction
  lactic acid release: marked reduction
Cyclooxygenase 2
  direct inhibition of cyclooxygenase 2: have not presently revealed an inhibition
